Test results taken from US10927117B2 (BEIGENE SWITZERLAND GMBH, priority 2016, dated 2021).
pIC50: −log10 of the molar value.

Assays:
[1] = Nonclinical toxicity studies in rats
Description: (§1) These studies took account the available regulatory guidance for preclinical development of anticancer drugs.

[2] = Nonclinical toxicity studies in dogs
Description: as §1

[3] = system: advanced B cell malignancies; test: Phase 1 trial in patients with advanced B cell malignancies (cutoff Oct. 19, 2015); assay type: in vivo, human
Description: A total of 39 patients, including all 25 patients from the initial dose-escalation component and 14 patients from the ongoing dose-expansion component were enrolled.
As of Oct. 19, 2015, the cutoff date for data analysis, 29 objective responses have been observed, including 3 complete responses (CRs), 1 very good partial response (VGPR), and 25 partial responses (PRs). 31 of the 39 patients remain on study treatment, free of progression, including all patients to date who have achieved an objective response.

[4] = system: Mino cells (MCL cell line); test: Tumor cell proliferation, CellTiter-Glo, Mino; assay type: cell-based; details: Homo sapiens, 144 h, 6-day exposure, mean of 3 independent assays, read-out: Potency IC50
Method: (§2) 3 MCL cell lines (Rec-1, Mino and JEKO-1) and an ABC type diffuse large B-cell lymphoma cell line (TMD8) were used in this study. Cell lines were maintained in RPMI-1640 supplemented with 10% fetal bovine serum/FBS (Thermo Scientific); 100 units/ml penicillin (Gibco) and 0.1 mg/ml streptomycin (Gibco) and kept at 37° C. in a humidified atmosphere of 5% CO2 in air. Cell lines were reinstated from frozen stocks that were laid down within 30 passages from the original cells purchased.
(§3) The growth-inhibitory activity of compounds in Rec-1, Mino, JEKO-1 and TMD-8 cells was determined using CellTiter-Glo luminescent cell viability assay (Promega). The number of cells seeded per well of a 96-well plate was optimized for each cell line to ensure logarithmic growth over 6 days treatment period. Cells were treated in triplicate with a 10-point dilution series. […] Mixture was mixed on an orbital shaker for 2 minutes to allow cell lysis, followed by 10 minutes incubation at room temperature to allow development and stabilization of luminescent signal, which corresponded to quantity of ATP and thus the quantity of metabolically active cells. Luminescent signal was measured using PHERAstar FS reader (BMG Labtech). IC50 values for cell viability were determined with GraphPad Prism software and were the mean of 3 independent assays.

[5] = system: TMD8 cells (ABC type diffuse large B-cell lymphoma cell line); test: Tumor cell proliferation, CellTiter-Glo, TMD-8; assay type: cell-based; details: Homo sapiens, TMD8, 144 h; TMD-8 cell line, DLBCL(ABC); 6-day exposure; mean of 3 independent assays; read-out: Potency IC50
Method: as §2, §3

[6] = Pharmacokinetics in rats (LC-MS/MS); assay type: in vivo, Sprague-Dawley rats
[7] = Burkitt's-like Lymphoma patients
[8] = Burkitt's-like Lymphoma patients, number of patients/total
[9] = Chronic Lymphocytic Leukemia patients
[10] = Chronic Lymphocytic Leukemia patients, number of patients/total
[11] = DLBCL patients, number of patients/total
[12] = Hairy Cell Leukemia patients, number of patients/total
[13] = Indolent NHL patients, number of patients/total
[14] = Mantle Cell Lymphoma patients, number of patients/total
[15] = Waldenström's Macroglobulinemia patients
[16] = Waldenström's Macroglobulinemia patients, number of patients/total

## C=CC(=O)N1CCC([C@@H]2CCNc3c(C(N)=O)c(-c4ccc(Oc5ccccc5)cc4)nn32)CC1 [Compound 1, (S)-7-(1-acryloylpiperidin-4-yl)-2-(4-phenoxyphenyl)-4,5,6,7-tetra-hydropyrazolo[1,5-a]pyrimidine-3-carboxamide]
[1]; rat single and repeat dose toxicity studies up to 28 days
  overall tolerance and severe toxicities compared with ibrutinib: safer than ibrutinib
[2]; dog single and repeat dose toxicity studies up to 28 days
  overall tolerance and severe toxicities compared with ibrutinib: safer than ibrutinib
[3]; 6 disease progression, 2 adverse events related to underlying malignancy
  patients who discontinued: 8
[3]; 6 patients with baseline history of AF
  exacerbation or new event of atrial fibrillation/flutter (AF): no exacerbation or new event of AF
[3]; 39 patients enrolled
  complete responses (CRs): 3
  partial responses (PRs): 25
  very good partial response (VGPR): 1
[3]; 39 patients enrolled, cutoff Oct. 19, 2015
  objective responses: 29
[3]; [7]
  Best Response CR: (0%)
  Best Response PD: (100%)
  Best Response PR: (0%)
  Best Response SD: (0%)
  ORR (CR + PR): (0%)
[3]; [8]
  Best Response CR: 0/1
  Best Response PD: 1/1
  Best Response PR: 0/1
  Best Response SD: 0/1
  ORR (CR + PR): 0/1
[3]; [9]
  Best Response PD: (0%)
  Best Response SD: (7%)
  ORR (CR + PR): (93%)
[3]; Chronic Lymphocytic Leukemia patients, cutoff Oct. 19, 2015
  Best Response CR: (0%)
[3]; Chronic Lymphocytic Leukemia patients, includes five patients with lymphocytosis at latest assessment
  Best Response PR: (93%)
[3]; Chronic Lymphocytic Leukemia patients, number of patients
  Best Response PD: 0
[3]; [10]
  Best Response SD: 1/14
  ORR (CR + PR): 13/14
[3]; Chronic Lymphocytic Leukemia patients, number of patients/total, cutoff Oct. 19, 2015
  Best Response CR: 0/14
[3]; Chronic Lymphocytic Leukemia patients, number of patients/total, includes five patients with lymphocytosis at latest assessment
  Best Response PR: 13/14^1
[3]; DLBCL patients
  Best Response CR: (25%)
  Best Response PD: (75%)
  Best Response PR: (0%)
  Best Response SD: (0%)
  ORR (CR + PR): (25%)
[3]; [11]
  Best Response CR: 1/4
  Best Response PD: 3/4
  Best Response PR: 0/4
  Best Response SD: 0/4
  ORR (CR + PR): 1/4
[3]; Hairy Cell Leukemia patients
  Best Response CR: (0%)
  Best Response PD: (0%)
  Best Response PR: (100%)
  Best Response SD: (0%)
  ORR (CR + PR): (100%)
[3]; [12]
  Best Response CR: 0/1
  Best Response PD: 0/1
  Best Response PR: 1/1
  Best Response SD: 0/1
  ORR (CR + PR): 1/1
[3]; Indolent NHL patients
  Best Response CR: (0%)
  Best Response PD: (0%)
  Best Response PR: (0%)
  Best Response SD: (100%)
  ORR (CR + PR): (0%)
[3]; [13]
  Best Response CR: 0/2
  Best Response PD: 0/2
  Best Response PR: 0/2
  Best Response SD: 2/2
  ORR (CR + PR): 0/2
[3]; Mantle Cell Lymphoma patients
  Best Response CR: (20%)
  Best Response PD: (10%)
  Best Response PR: (60%)
  Best Response SD: (10%)
  ORR (CR + PR): (80%)
[3]; [14]
  Best Response CR: 2/10
  Best Response PD: 1/10
  Best Response PR: 6/10
  Best Response SD: 1/10
  ORR (CR + PR): 8/10
[3]; [15]
  Best Response CR: (0%)
  Best Response PD: (14%)
  Best Response SD: (0%)
  ORR (CR + PR): (86%)
[3]; Waldenström's Macroglobulinemia patients, includes one patient with VGPR
  Best Response PR: (86%)
[3]; [16]
  Best Response CR: 0/7
  Best Response PD: 1/7
  Best Response SD: 0/7
  ORR (CR + PR): 6/7
[3]; Waldenström's Macroglobulinemia patients, number of patients/total, includes one patient with VGPR
  Best Response PR: 6/7^2
[3]; all self-limited neutropenia
  ≥Grade 3 AEs assessed as possibly drug-related: 4
[3]; disease progression or its complications
  patients who died during study: 3
[3]; human, in vivo
  drug-related serious adverse events (SAEs): no drug-related serious adverse events
  number of ≥Grade 3 AEs: 19
[3]; not considered drug-related
  major hemorrhage: one case
[3]; of the 39 patients
  patients remaining on study treatment, free of progression: 31
7 major human CYPs
  time-dependent CYP inhibition potential: unlikely to be time dependent CYP inhibitors

## C=CC(=O)N1CCC([C@@H]2CCNc3c(C(N)=O)c(-c4ccc(Oc5ccccc5)cc4)nn32)CC1 [Crystalline Form A, (S)-7-(1-acryloylpiperidin-4-yl)-2-(4-phenoxyphenyl)-4,5,6,7-tetra-hydropyrazolo[1,5-a]pyrimidine-3-carboxamide]
[4]
  pIC50: 8.42
[5]
  pIC50: 9.27
[1]; rat, in vivo
  test article-related mortality: No test article-related mortality
[1]; rats
  changes in clinical chemistry or coagulation: No toxicologically significant changes
[2]; dog, in vivo
  test article-related mortality: No test article-related mortality
[2]; dogs
  changes in clinical chemistry or coagulation: No toxicologically significant changes
[6]; female rats
  linearity of kinetics over the dose range: linear
[6]; male and female rats
  accumulation following multiple oral dosing: no statistically significant accumulation
[6]; male rats
  linearity of kinetics: not as good
[6]; rats
  absorption: quickly absorbed
  oral bioavailability: good oral bioavailability
  plasma clearance (CL): high plasma clearance
